Key:
Type in all cases: biochemical
[1] = biological target: T1, kinase domain of the human TrkA receptor (Homo sapiens, UniProt P04629); assay: TrkA tyrosine kinase assay (33P, polyGluTyr substrate); conditions: 30 uM ATP, 0.1 mg/ml PGT
T1 construct: The kinase domain of the human TrkA receptor is expressed in Sf9 insect cells as a histidine (His)-fusion protein; His; made in house; host or cells: Sf9 insect cells (baculovirus)
Excerpt: The ability of compounds of the present invention to inhibit tyrosine kinase activity of TrkA may be measured using a recombinant enzyme in an assay that measures the ability of compounds to inhibit the phosphorylation of the exogenous substrate, polyGluTyr (PGT, 4:1). The kinase domain of the human TrkA receptor is expressed in Sf9 insect cells as a histidine (His)-fusion protein using a baculovirus expression system. The protein is purified from the lysates of these cells using an Ni—NTA affinity column. After the recombinant enzyme is purified, it is activated by incubation with cold ATP. The enzyme assay is performed in a 96-well plate. Test compounds are first dissolved in dimethylsulfoxide (DMSO) and then serially-diluted in a 96-well plate. The serially-diluted compounds are transferred to the 96-well assay plate so that the final concentration of DMSO in the enzyme assay is 1.64%. All assay components are diluted in phosphorylation buffer (20 mm MOPS, 10 mM MgCl2, 1 mM EDTA, 0.015% Brij-35, […], 0.0025% Beta-Mercaptoethanol). The recombinant enzyme is added to the assay plate containing test compound and the reaction is initiated with a substrate solution containing a final concentration of 0.1 mg/ml PGT, 30 uM ATP, and 0.008 mCi/ml ^33P-gammaATP (3000 Ci/mmol). After a 1 hour incubation at 30° C., the reaction is terminated with 10% TCA and incubated at 4° C. for 1 hour. The reaction is filtered onto a Unifilter® GF/C™ filter plate that has been presoaked with 0.1M NaPyrophosphate. Microscint-20 is then added to the dried filter plate and the captured ^33P-phosphorylated PGT is quantitated on a microscintillation plate counter (TopCount.NXT™). Inhibition of the kinase enzymatic activity by the test compound is detected by a reduction in scintillation, and the concentration of compound that is required to inhibit the signal by 50% is reported as the IC50 value for the test compound.
(§1) Compounds described herein were tested in the TrkA and TrkB assays described above.

[2] = biological target: T2, kinase domain of the human TrkB receptor (amino acids 526-838) (Homo sapiens, UniProt Q16620); assay: TrkB tyrosine kinase assay (33P, polyGluTyr substrate); conditions: 30 uM ATP, 0.1 mg/ml PGT
T2 construct: human TrkB receptor (amino acids 526-838); His; purchased Invitrogen; host or cells: insect cells
Protocol: The ability of compounds of the present invention to inhibit tyrosine kinase activity of TrkB may be measured using a recombinant enzyme in an assay that measures the ability of compounds to inhibit the phosphorylation of the exogenous substrate, polyGluTyr (PGT, 4:1). The kinase domain of the human TrkB receptor (amino acids 526-838) is expressed in insect cells as a histidine (His)-fusion protein and is commercially available from Invitrogen™. The enzyme assay is performed in a 96-well plate. Test compounds are first dissolved in dimethylsulfoxide (DMSO) and then serially-diluted in a 96-well plate. The serially-diluted compounds are transferred to the 96-well assay plate so that the final concentration of DMSO in the enzyme assay is 1.64%. All assay components are diluted in phosphorylation buffer (20 mm MOPS, 10 mM MgCl2, 1 mM EDTA, 0.015% Brij-35, 0.1 mg/ml BSA, 0.0025% Beta-Mercaptoethanol). The recombinant enzyme is added to the assay plate containing test compound and the reaction is initiated with a substrate solution containing a final concentration of 0.1 mg/ml PGT, 30 uM ATP, and 0.008 mCi/ml ^33P-gammaATP (3000 Ci/mmol). After a 1 hour incubation at 30° C., the reaction is terminated with 10% TCA and incubated at 4° C. for 1 hour. The reaction is filtered onto a Unifilter® GF/C™ filter plate that has been pre-soaked with 0.1M NaPyrophosphate. Microscint-20 is then added to the dried filter plate and the captured ^33P-phosphorylated PGT is quantitated on a microscintillation plate counter (TopCount.NXT™). Inhibition of the kinase enzymatic activity by the test compound is detected by a reduction in scintillation, and the concentration of compound that is required to inhibit the signal by 50% is reported as the IC50 value for the test compound.
as §1

[3] = biological target: Casein Kinase 2 A1 kinase (Homo sapiens, UniProt P68400); assay: CK2A1 kinase assay (33P, TCA precipitation)
Protocol: (§2) Incubation mixtures employed for the Casein Kinase 2 A1 kinase assay contain Casecin Kinase 2 A1 kinase, a synthetic peptide substrate, ATP, ATP-γ-^33 P and a Hepes buffer containing Mg^2+, NaCl, DTT, and Brij-35. Reactions were incubated for 60 minutes at 30° C. and stopped by the addition of trichloroacetic acid (TCA) to a final concentration 8%. TCA precipitates were collected onto GF/C unifilter plates using a Filtermate universal harvester and the filters are quantitated using a TopCount 96/384-well liquid scintillation counter. Dose response curves were generated to determine the concentration required to inhibit 50% of kinase activity (IC50). Compounds were dissolved at 10 mM in dimethyl sulfoxide (DMSO) and evaluated at ten concentrations, each in duplicate. The final concentration of DMSO in the assay is 1.7%. IC50 values were derived by non-linear regression.

[4] = biological target: Casein Kinase 2 A2 kinase (Homo sapiens, UniProt P19784); assay: CK2A2 kinase assay (33P, TCA precipitation)
Protocol: as §2, with “A2” for “A1”, “Casein” for “Casecin”, “ATP-γ^33P” for “ATP-γ-^33 P”, “Mg^++,” for “Mg^2+,”, “(IC^50).” for “(IC50).”

Sequence of Casein Kinase 2 A1 kinase (P68400 whole entry): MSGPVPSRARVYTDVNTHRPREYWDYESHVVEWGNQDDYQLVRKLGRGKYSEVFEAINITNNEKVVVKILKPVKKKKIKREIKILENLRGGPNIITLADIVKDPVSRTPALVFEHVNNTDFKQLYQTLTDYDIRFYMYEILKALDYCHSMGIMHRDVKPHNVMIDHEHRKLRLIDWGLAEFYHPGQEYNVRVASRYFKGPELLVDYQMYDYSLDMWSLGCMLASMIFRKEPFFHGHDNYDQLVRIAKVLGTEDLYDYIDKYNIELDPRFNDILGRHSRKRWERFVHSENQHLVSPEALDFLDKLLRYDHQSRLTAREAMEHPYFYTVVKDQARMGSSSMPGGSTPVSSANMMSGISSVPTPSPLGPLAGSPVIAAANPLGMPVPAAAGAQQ
T2 sequence (Q16620 510-822): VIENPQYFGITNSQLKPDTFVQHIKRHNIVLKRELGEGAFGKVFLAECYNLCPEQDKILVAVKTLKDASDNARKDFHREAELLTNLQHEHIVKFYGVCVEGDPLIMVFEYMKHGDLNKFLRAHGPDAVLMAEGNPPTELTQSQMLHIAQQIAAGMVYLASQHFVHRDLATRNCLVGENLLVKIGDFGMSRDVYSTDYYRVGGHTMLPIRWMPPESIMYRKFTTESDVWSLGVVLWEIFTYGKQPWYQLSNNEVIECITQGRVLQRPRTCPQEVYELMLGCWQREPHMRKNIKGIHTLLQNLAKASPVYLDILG
Sequence of Casein Kinase 2 A2 kinase (P19784 whole entry): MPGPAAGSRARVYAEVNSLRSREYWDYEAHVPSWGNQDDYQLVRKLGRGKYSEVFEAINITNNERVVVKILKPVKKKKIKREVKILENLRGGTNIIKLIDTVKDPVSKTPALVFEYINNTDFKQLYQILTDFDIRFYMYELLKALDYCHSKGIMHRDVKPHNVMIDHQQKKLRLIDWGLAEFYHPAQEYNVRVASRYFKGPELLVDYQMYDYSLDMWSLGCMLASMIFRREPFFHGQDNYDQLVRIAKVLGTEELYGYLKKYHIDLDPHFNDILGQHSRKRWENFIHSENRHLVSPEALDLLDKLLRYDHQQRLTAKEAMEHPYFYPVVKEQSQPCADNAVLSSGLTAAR
T1 sequence (P04629 510-781 limits assumed): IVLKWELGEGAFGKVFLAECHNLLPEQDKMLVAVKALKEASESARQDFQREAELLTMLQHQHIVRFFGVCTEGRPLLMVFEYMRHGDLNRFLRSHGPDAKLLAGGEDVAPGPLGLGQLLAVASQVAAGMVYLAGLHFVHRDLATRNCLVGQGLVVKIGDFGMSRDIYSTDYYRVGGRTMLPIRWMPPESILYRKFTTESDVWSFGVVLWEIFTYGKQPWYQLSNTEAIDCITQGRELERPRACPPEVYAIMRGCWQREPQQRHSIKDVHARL

| Compound | IC50 [1] [µM] | IC50 [2] [µM] | IC50 [3] [µM] | IC50 [4] [µM] |
| --- | --- | --- | --- | --- |
| NCC1CCN(c2nc(Nc3cc(-c4ccccc4)n[nH]3)c3cccn3n2)CC1 [Example 97, 2-(4-(aminomethyl)-1-piperidinyl)-N-(3-phenyl-1H-pyrazol-5-yl)pyrrolo[2,1-f][1,2,4]triazin-4-amine] | 0.024 | 0.048 | – | – |
| Cc1cc(Nc2nc(N3CCC(c4ccccc4)C3)nn3cccc23)[nH]n1 (stereo not drawn) [Example 186, N-(5-methyl-1H-pyrazol-3-yl)-2-(3-phenylpyrrolidin-1-yl)pyrrolo[1,2-f][1,2,4]triazin-4-amine] | – | – | 0.294 | 0.039 |
| COc1ccc(C2CCN(c3nc(Nc4cc(C)n[nH]4)c4cccn4n3)C2)cn1 (stereo not drawn) [Example 212, (3-(6-Methoxypyridin-3-yl)pyrrolidin-1-yl)-N-(3-methyl-1H-pyrazol-5-yl)pyrrolo[1,2-f][1,2,4]triazin-4-amine] | – | – | 1.38 | 0.099 |
| CC(C)(C)c1cc(Nc2nc(N3CCC(N)CC3)nn3cccc23)[nH]n1 [Example 21, 2-(4-amino-1-piperidinyl)-N-(3-tert-butyl-1H-pyrazol-5-yl)pyrrolo[2,1-f][1,2,4]triazin-4-amine] | 0.056 | 0.086 | – | – |
| c1ccc([C@H]2C[C@@H]2c2cc(Nc3nc(N4CCC(c5cccnc5)C4)nn4cccc34)[nH]n2)cc1 (stereo partly drawn) [Example 197, N-(3-((1S,2S)-2-phenylcyclopropyl)-1H-pyrazol-5-yl)-2-(3-(pyridin-3-yl)pyrrolidin-1-yl)pyrrolo[1,2-f][1,2,4]triazin-4-amine] | – | – | 11.3 | 1.02 |
| c1cncc(C2CCN(c3nc(Nc4cc(C5CC5)n[nH]4)c4cccn4n3)C2)c1 (stereo not drawn) [Example 181, N-(3-cyclopropyl-1H-pyrazol-5-yl)-2-(3-(pyridin-3-yl)pyrrolidin-1-yl)pyrrolo[1,2-f][1,2,4]triazin-4-amine] | – | – | 0.084 | 0.006 |
| Cc1cc(Nc2nc(N3CCC(CC(=O)O)C3)nn3cccc23)[nH]n1 (stereo not drawn) [Example 199, 2-(1-(4-(3-methyl-1H-pyrazol-5-ylamino)pyrrolo[1,2-f][1,2,4]triazin-2-yl)pyrrolidin-3-yl)acetic acid] | – | – | 2.35 | 0.379 |
| Cc1cc(Nc2nc(N3CC[C@@H](O)C3)nn3cccc23)n[nH]1 [Example 70, (3R)-1-(4-((5-methyl-1H-pyrazol-3-yl)amino)pyrrolo[2,1-f][1,2,4]triazin-2-yl)-3-pyrrolidinol] | 0.023 | 0.038 | – | – |
| Cc1cc(Nc2nc(N3CCOCC3)nn3cccc23)[nH]n1 [Example 95, N-(3-methyl-1H-pyrazol-5-yl)-2-(4-morpholinyl)pyrrolo [2,1-f][1,2,4]triazin-4-amine] | 0.023 | 0.049 | – | – |
| NC1CCN(c2nc(Nc3ccn[nH]3)c3cccn3n2)CC1 [Example 4, 2-(4-amino-1-piperidinyl)-N-1H-pyrazol-5-ylpyrrolo[2,1-f][1,2,4]triazin-4-amine] | 0.123 | 0.312 | – | – |
| Cc1cc(Nc2nc(N3CCNCC3)nn3cccc23)n[nH]1 [Example 74, N-(5-methyl-1H-pyrazol-3-yl)-2-(1-piperazinyl)pyrrolo[2,1-f][1,2,4]triazin-4-amine] | 0.12 | 0.195 | – | – |

Next, values leading:

| IC50 [1] [µM] | IC50 [2] [µM] | IC50 [3] [µM] | IC50 [4] [µM] | Compound |
| --- | --- | --- | --- | --- |
| 0.0009 | 0.0006 | – | – | O=C(Cc1cccs1)NC1CCN(c2nc(Nc3cc(C4CC4)n[nH]3)c3cccn3n2)CC1 [Example 49, N-(1-(4-((3-cyclopropyl-1H-pyrazol-5-yl)amino)pyrrolo[2,1-f][1,2,4]triazin-2-yl)-4-piperidinyl)-2-(2-thienyl)acetamide] |
| 0.005 | 0.01 | – | – | N[C@H]1CCN(c2nc(Nc3cc(C4CC4)n[nH]3)c3cccn3n2)C1 [Example 91] |
| 0.0006 | 0.002 | – | – | NC1CCN(c2nc(Nc3cc(C4CC4)n[nH]3)c3cccn3n2)CC1 [Example 3, 2-(4-amino-1-piperidinyl)-N-(3-cyclopropyl-1H-pyrazol-5-yl)pyrrolo[2,1-f][1,2,4]triazin-4-amine] |
| 0.005 | 0.009 | – | – | Cc1cc(Nc2nc(N3CCCC3)nn3cccc23)n[nH]1 [Example 75, N-(5-methyl-1H-pyrazol-3-yl)-2-(1-pyrrolidinyl)pyrrolo[2,1-f][1,2,4]triazin-4-amine] |
| 0.001 | 0.0007 | – | – | N#CCC(=O)NC1CCN(c2nc(Nc3cc(C4CC4)n[nH]3)c3cccn3n2)CC1 [Example 39, 2-cyano-N-(1-(4-((3-cyclopropyl-1H-pyrazol-5-yl)amino)pyrrolo[2,1-f][1,2,4]triazin-2-yl)-4-piperidinyl)acetamide] |
| 0.001 | 0.003 | – | – | NC1CCN(c2nc(Nc3cc(OCC4CC4)n[nH]3)c3cccn3n2)CC1 [Example 14, 2-(4-amino-1-piperidinyl)-N-(3-(cyclopropylmethoxy)-1H-pyrazol-5-yl)pyrrolo[2,1-f][1,2,4]triazin-4-amine] |
| 0.0004 | 0.0005 | – | – | O=C(CCc1ccccc1)NC1CCN(c2nc(Nc3cc(C4CC4)n[nH]3)c3cccn3n2)CC1 [Example 43, N-(1-(4-((3-cyclopropyl-1H-pyrazol-5-yl)amino)pyrrolo[2,1-f][1,2,4]triazin-2-yl)-4-piperidinyl)-3-phenylpropanamide] |
| 0.009 | 0.02 | – | – | CCC(C)c1cc(Nc2nc(N3CCC(N)CC3)nn3cccc23)[nH]n1 (stereo not drawn) [Example 19, 2-(4-amino-1-piperidinyl)-N-(3-sec-butyl-1H-pyrazol-5-yl)pyrrolo[2,1-f][1,2,4]triazin-4-amine] |
| 0.0008 | 0.001 | – | – | C[C@H]1C[C@@H]1c1cc(Nc2nc(N3CCC(N)CC3)nn3cccc23)[nH]n1 [Example 18, 2-(4-amino-1-piperidinyl)-N-(3-((1S,2S)-2-methylcyclopropyl)-1H-pyrazol-5-yl)pyrrolo[2,1-f][1,2,4]triazin-4-amine] |
| 0.0003 | 0.0003 | – | – | c1ccc(CNC2CCN(c3nc(Nc4cc(C5CC5)n[nH]4)c4cccn4n3)CC2)cc1 [Example 8, 2-(4-(benzylamino)-1-piperidinyl)-N-(3-cyclopropyl-1H-pyrazol-5-yl)pyrrolo[2,1-f][1,2,4]triazin-4-amine] |
